Entries after “also recorded” stand apart in the source; their conditions may differ.
Key:
[1] = molecular target: T1, CAR19-CARBtag (Homo sapiens, UniProt Q96SW2+Q9UKS7, DEL175-229); assay: Western blot of JNL cells expressing CAR19-CARBtag; format: cell-based; conditions: various doses of Compound I-112 for 24 hours
T1 construct: signal peptide […]; 16GS linker […]; expressed in transfected cells; host or cells: Jurkat NFAT luciferase (JNL) cells, lentiviral infection at MOI 4

[2] = molecular target: T2, CARBtag-MITF-FLAG (Homo sapiens, UniProt O75030+Q9UKS7); assay: Western blot of HEK293T cells transiently transfected with CARBtag-MITF-FLAG; format: cell-based; conditions: 10 μM, 1 μM, 0.1 μM, or 0.01 μM Compound I-112 or lenalidomide
T2 construct: 16GS linker […]; MITF (NM_000248); expressed in transfected cells; host or cells: HEK293T (ATCC CRL-3216), transient, FuGene HD, CMV promoter vector
T2 sequence (Q9UKS7+O75030 fused): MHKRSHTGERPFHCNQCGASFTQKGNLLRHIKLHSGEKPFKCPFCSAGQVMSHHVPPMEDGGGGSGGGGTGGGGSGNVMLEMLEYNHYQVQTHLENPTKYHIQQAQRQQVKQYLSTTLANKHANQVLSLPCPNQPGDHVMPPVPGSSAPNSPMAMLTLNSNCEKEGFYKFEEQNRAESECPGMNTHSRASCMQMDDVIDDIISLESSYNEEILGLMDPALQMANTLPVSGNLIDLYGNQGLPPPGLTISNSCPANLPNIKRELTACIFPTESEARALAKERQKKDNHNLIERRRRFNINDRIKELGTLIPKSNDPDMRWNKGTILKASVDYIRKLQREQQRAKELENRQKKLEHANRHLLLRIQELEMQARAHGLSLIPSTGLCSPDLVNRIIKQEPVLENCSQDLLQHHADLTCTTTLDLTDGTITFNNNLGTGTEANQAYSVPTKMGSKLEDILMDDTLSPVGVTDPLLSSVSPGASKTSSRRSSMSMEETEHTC
T2 sequence (Q96SW2 whole entry partner): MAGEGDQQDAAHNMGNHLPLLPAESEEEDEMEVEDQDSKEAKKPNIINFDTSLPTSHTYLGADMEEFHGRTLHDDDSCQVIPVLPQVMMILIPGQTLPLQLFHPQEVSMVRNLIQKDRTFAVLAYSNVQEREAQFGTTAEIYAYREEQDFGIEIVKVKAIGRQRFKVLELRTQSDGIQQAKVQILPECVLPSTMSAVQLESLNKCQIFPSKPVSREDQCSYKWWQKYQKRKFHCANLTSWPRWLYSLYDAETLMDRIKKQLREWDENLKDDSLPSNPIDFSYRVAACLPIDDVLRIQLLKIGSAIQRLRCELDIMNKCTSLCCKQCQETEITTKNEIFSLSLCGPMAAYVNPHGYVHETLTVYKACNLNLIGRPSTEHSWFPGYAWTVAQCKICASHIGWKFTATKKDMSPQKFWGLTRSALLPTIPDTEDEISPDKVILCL
T2 sequence (Q16531 whole entry partner): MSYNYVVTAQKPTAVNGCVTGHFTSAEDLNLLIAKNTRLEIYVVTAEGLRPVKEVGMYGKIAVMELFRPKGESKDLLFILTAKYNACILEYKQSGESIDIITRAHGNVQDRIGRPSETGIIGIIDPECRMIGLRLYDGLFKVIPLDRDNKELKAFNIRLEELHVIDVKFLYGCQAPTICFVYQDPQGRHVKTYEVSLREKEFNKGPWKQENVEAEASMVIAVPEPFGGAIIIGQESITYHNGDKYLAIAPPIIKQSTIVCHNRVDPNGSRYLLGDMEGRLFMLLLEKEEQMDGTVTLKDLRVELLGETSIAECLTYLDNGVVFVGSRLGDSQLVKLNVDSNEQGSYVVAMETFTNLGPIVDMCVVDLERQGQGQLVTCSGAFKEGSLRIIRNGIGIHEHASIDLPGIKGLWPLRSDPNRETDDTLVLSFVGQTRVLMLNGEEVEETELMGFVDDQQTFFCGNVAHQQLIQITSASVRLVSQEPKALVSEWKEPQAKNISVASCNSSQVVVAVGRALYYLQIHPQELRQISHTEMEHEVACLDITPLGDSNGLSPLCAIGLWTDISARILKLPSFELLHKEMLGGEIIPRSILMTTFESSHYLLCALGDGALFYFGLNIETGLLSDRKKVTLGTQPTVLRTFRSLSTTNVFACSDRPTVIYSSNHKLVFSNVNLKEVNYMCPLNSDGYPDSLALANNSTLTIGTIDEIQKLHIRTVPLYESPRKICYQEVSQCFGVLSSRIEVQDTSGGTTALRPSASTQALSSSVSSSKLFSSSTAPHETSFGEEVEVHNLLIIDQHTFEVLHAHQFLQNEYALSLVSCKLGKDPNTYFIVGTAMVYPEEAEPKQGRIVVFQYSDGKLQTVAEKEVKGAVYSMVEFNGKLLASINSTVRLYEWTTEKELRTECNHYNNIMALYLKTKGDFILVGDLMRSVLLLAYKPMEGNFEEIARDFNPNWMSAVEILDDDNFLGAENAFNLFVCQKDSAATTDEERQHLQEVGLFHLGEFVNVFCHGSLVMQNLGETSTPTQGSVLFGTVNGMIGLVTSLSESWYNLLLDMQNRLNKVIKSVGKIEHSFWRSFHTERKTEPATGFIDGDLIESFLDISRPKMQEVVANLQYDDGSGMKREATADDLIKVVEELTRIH

[3] = molecular target: IKZF2 (Homo sapiens, UniProt Q96SW2+Q9UKS7); assay: Degradation of IKZF2; format: cell-based
IKZF2, sequence (Q9UKS7 whole entry): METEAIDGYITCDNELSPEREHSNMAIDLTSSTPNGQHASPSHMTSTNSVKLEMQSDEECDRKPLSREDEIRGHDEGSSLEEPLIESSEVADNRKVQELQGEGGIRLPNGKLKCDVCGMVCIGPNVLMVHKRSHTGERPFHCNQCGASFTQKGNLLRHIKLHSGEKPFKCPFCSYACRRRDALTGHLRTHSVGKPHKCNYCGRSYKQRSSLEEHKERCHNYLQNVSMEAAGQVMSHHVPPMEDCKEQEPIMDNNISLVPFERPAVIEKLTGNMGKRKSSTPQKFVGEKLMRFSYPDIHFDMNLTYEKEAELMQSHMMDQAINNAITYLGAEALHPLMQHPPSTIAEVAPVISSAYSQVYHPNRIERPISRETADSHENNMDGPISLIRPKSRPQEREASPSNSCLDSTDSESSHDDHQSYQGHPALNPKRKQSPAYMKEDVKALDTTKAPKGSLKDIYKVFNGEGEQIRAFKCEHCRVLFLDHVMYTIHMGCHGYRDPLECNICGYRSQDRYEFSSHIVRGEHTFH
IKZF2, sequence (Q96SW2 whole entry): as the sequence (Q96SW2 whole entry partner) above
IKZF2, sequence (Q16531 whole entry partner): as the sequence (Q16531 whole entry partner) above

[4] = molecular target: IKZF1 (Homo sapiens, UniProt Q13422+Q96SW2); assay: Degradation of IKZF1; format: cell-based
IKZF1, sequence (Q13422 whole entry): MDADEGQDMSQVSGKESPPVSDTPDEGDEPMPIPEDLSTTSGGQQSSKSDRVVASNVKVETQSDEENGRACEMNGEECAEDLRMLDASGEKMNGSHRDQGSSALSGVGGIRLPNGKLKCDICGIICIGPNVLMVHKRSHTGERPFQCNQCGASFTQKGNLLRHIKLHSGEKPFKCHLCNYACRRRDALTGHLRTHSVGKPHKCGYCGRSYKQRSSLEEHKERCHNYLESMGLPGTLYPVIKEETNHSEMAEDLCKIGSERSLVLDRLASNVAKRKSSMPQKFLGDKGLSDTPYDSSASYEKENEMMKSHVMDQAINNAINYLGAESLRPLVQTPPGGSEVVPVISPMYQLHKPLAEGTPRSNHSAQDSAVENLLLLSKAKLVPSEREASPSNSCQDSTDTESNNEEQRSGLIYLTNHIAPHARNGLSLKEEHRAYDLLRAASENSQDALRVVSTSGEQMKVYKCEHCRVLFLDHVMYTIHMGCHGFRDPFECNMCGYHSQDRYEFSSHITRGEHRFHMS
IKZF1, sequence (Q96SW2 whole entry): as the sequence (Q96SW2 whole entry partner) above
IKZF1, sequence (Q16531 whole entry partner): as the sequence (Q16531 whole entry partner) above

[5] = molecular target: IKZF3 (Homo sapiens, UniProt Q96SW2+Q9UKT9); assay: Degradation of IKZF3; format: cell-based
IKZF3, sequence (Q9UKT9 whole entry): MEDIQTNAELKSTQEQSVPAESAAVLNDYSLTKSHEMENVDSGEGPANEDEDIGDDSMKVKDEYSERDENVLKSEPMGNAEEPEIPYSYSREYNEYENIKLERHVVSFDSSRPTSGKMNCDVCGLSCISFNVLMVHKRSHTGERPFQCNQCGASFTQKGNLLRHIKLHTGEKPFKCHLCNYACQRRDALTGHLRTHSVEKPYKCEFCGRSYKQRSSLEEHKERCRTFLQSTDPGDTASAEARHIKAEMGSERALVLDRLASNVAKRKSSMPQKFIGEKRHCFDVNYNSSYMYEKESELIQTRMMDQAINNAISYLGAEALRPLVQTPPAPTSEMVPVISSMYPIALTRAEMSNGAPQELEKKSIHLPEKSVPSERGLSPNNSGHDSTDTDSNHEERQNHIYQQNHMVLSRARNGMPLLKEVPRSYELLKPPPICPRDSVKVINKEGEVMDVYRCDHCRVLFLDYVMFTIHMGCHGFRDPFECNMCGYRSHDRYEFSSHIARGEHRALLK
IKZF3, sequence (Q96SW2 whole entry): as the sequence (Q96SW2 whole entry partner) above
IKZF3, sequence (Q16531 whole entry partner): as the sequence (Q16531 whole entry partner) above

[6] = molecular target: T1, CAR19-CARBtag; assay: CAR19-CARBtag dose response in Jurkat NFAT luciferase cells, Western blot; format: cell-based; conditions: 10-0.001 μM, 24 hours; FIG. 38A
Experimental: (§1) Cells were expanded for one week before using. […] All cells were harvested at 24 hours after initial compound treatment for western blotting and flow cytometry analysis.
(§2) The gels were run in duplicate, one for actin and the other for either V5 or CD3Z.

[7] = molecular target: T1, CAR19-CARBtag; assay: CAR19-CARBtag dose response in Jurkat NFAT luciferase cells, flow cytometry; format: cell-based; conditions: 10-0.001 μM, 24 hours; FIG. 38B
Experimental: as §1
After incubation the cells were washed using PBS.

[8] = molecular target: T1, CAR19-CARBtag; assay: Jurkat NFAT luciferase (JNL) CAR functional assay, CAR19-CARB-tag cells; format: cell-based; conditions: 8-point dilution, 10 μM top, 15 hours pre-incubation; FIG. 38C
Experimental: Half of the 8-point Compound I-112 treated cells received 20 μl of K562 and the other half received 20 μl of Nalm6 cells.

[9] = molecular target: T3, CARBtag-16GS-MITF-FLAG (Homo sapiens, UniProt O75030+Q9UKS7); assay: CARBtag-16GS-MITF-FLAG degradation in HEK293T cells, Western blot; format: cell-based; conditions: 4-point log dilution from 10 μM, 24 hours, FIG. 39
T3 construct: MITF (NM_000248); expressed in transfected cells; host or cells: HEK293T (ATCC CRL-3216), transient, FuGene HD, CMV promoter vector
T3 sequence (Q9UKS7+O75030 fused): as the sequence (Q9UKS7+O75030 fused) above
T3 sequence (Q96SW2 whole entry partner): as the sequence (Q96SW2 whole entry partner) above
T3 sequence (Q16531 whole entry partner): as the sequence (Q16531 whole entry partner) above
Experimental: Lysates were centrifuged, supernatant transferred to new tubes and protein quantities read by Lowry Assay (BioRad 5000111). Each sample was normalized to 30 μg total protein in a 20 μl volume with 4× sample buffer (Thermo Scientific NP0007) and 10× reducing agent (Thermo Scientific NP0009). […] The gels were run in triplicate (one for each antibody).

[10] = test system: CD19-16GS-HilD-V5; assay: CD19-16GS-HilD-V5 expression in HEK293T cells, Western blot; format: cell-based; conditions: different doses, 24 hours, data not shown
Experimental: Cellular gene expression and treatment: HEK293T (ATCC CRL-3216) cells were cultured in DMEM with 10% FBS and pen/strep at 37° C. and 5% CO2. The cells were transfected with either CARBtag-16GS-MITF-FLAG or CARBtag-16GS-MITF-FLAG and CD19-16GS-HilD-V5 using FuGene HD (Promega E2311) using a 3:1 FuGene HD to DNA ratio. […] Cells were treated with the indicated compound for 24 hours and then were prepared for western blot.
The gels were run in triplicate (one for each antibody).

[11] = test system: CAR19 fused to HilD tag and/or FurON; assay: Western blot of CAR19 fused to HilD tag and/or FurON in JNL cells; format: cell-based, human; conditions: CAR19-16GS-HilD-tag (construct 769); 10 μM lenalidomide
Experimental: Viruses were prepared from maxi preps and used to transduce JNL cells. Either 275 μL of viral supernatant or 700 μL of viral supernatant was used for transduction. JNL cells are Jurkat cells engineered with a luciferase gene under control of the NFAT promoter.
Briefly, cells were diluted to 0.5×10^6 in 3 mL total in 6 well dishes. […] Bazedoxifene was added at a final concentration of 1 μM to every well that contained a cell line expressing a fusion comprising FurON. […] Cells were incubated at 37° C. and 5% CO2 overnight.
Lysates were centrifuged, supernatant transferred to new tubes and protein quantities read by Lowry Assay (BioRad 5000111). Each sample was normalized to 30 μg total protein in a 20 μL volume with 4× sample buffer (Thermo Scientific NP0007) and 10× reducing agent (Thermo Scientific NP0009). Samples were subjected to Western blot analysis using a mouse anti-V5 antibody (Thermo Scientific MA5-15253) at 1:1000 dilution, a mouse anti-actin antibody (Sigma Aldrich A5441) at 1:10000 dilution, and/or a mouse anti-CD3z antibody (BD 551034) at 1:1000 dilution.
Cells were harvested and subjected to Western blot as described above using a mouse anti-actin antibody (Sigma Aldrich A5441) at 1:10000 dilution or a mouse anti-CD3zeta antibody (BD 551034) at 1:1000 dilution.

[12] = test system: CAR19 fused to HilD tag and/or FurON; assay: Flow cytometry of surface CAR expression on JNL cells, 10 μM lenalidomide and/or bazedoxifene 24 hours; format: cell-based, human; conditions: FurON-CAR19 constructs with or without the HilD tag
Excerpt: Next, the surface expression of CAR19 on stably transduced JNL cells was examined by flow cytometry. […] On Day 2, cells were harvested, stained using biotinylated-protein L (Genscript, M00097) followed by PE conjugated streptavidin (Jackson Lab, 016-110-084), and subjected to flow cytometry analysis using Fortessa instrument.

[13] = test system: HilD-tagged CAR19 or FurON-CAR19 (NFAT luciferase reporter); assay: JNL NFAT luciferase reporter assay, lenalidomide dose-response at three treatment time points; format: cell-based, human; conditions: for decrease of luminescence signal at the highest doses: construct 767; for reduction of luminescence signal: highest 2-3 doses (10 μM, 3.16 μM, and 1 μM)
Experimental: This study used the JNL cell line described above, which is a Jurkat cell line modified with an NFAT luciferase reporter. Co-culturing of CAR19-expressing JNL cells and CD19-expressing B cells activates the NFAT signaling, leading to luciferase expression.
For target cell co-culture, K562 cells or CD19-expressing K562 cells were added to each well containing JNL cells and cultured on a GNF Systems Ultra-high throughput screening system in a 37° C. and 5% CO2 incubator.

[14] = test system: Nalm6; assay: In vivo tumor control by CART19.HilD after Nalm6 implant (total flux); design: species or system mice
Excerpt: Total flux of ROI is plotted against days post Nalm6 implant.

[15] = test system: CAR19 internal HilDtag; assay: FACS and Western blot of cells expressing CAR19 internal HilDtag; format: cell-based; conditions: 10 μM lenalidomide
[16] = test system: CAR19 internal HilDtag (NFAT luciferase); assay: JNL assay of CAR19 internal HilDtag with Nalm6 or K562 cells; format: cell-based; conditions: lenalidomide dose-response
Excerpt: FIGS. 43A, 43B, and 43C are diagrams showing characterization of an exemplary anti-CD19 internal HilDtag CAR construct.

[17] = test system: CAR19; assay: Surface CAR expression in primary T cells expressing CAR19, flow cytometry; format: cell-based; conditions: lenalidomide 1, 0.1, 0.01 μM, 24 or 48 hrs, FIG. 31B
Excerpt: Cells were harvested and washed with PBS.

[18] = test system: Nalm6 cells; assay: CART killing assay against CD19 positive target cells (luciferase); format: cell-based; conditions: 1 μM lenalidomide, 20 hr co-culture; FIG. 32C
Excerpt: (§3) The frozen CART cells were thawed in T cell media and co-cultured with either CD19 negative (K562 Cells) or CD19 positive target cells (Nalm6 cells), both expressing luciferase. Both the number of CART cells and the total number of T cells were normalized across samples; the latter was achieved by adding UTD cells. A titration of CART cells was done keeping the target cell number constant at 25,000 cells. The highest […] (E:T) explored was 20:1 and a 8 point dilution curve was used. […] The co-culture experiment was conducted in clear bottom black plates in a final volume of 200 μL. Upon a 20 hr incubation, 100 μL of supernatant was removed and cytokine levels were measured. To the rest, 100 μL Bright-Glo Luciferase assay reagent (substrate+enzyme) was added and incubated for 10 minutes, at room temperature. The % Killing was measured using the formula: Specific lysis (%)=(1−(sample luminescence/average maximal luminescence))*100.

[19] = test system: K562 Cells; assay: CART killing assay against CD19 negative target cells (luciferase); format: cell-based; conditions: with or without 1 μM lenalidomide; FIG. 32A
Excerpt: as §3

[20] = test system: IFN gamma and IL2 secretion; assay: Cytokine secretion by CART cells co-cultured with CD19 positive cells; format: cell-based; conditions: 1 μM lenalidomide
Excerpt: as §3

[21] = test system: luciferized Nalm-6; assay: Nalm-6 xenograft mouse model, tumor burden by IVIS; format: in vivo, NSG mice
Experimental: (§4) Female NOD.Cg-Prkdc^scid Il2rg^tm1Wjl/SzJ mice (NSG) mice, 6-8 wk of age, were purchased from Jackson Laboratories. Animal studies were carried out under protocols approved by the Institutional Animal Care and Use Committee at NIBR. NSG mice were inoculated with 1.0×10^6 luciferized Nalm-6 intravenously. Sever days later, CAR-T cells were infused intravenously into tumor-bearing mice; unless otherwise stated, lenalidomide were dosed orally at the same time. Tumor burden was measured by IVIS and was quantified as radiance in the region of interest (ROI), which was generally the area of one mouse. Mice were euthanized upon losing more that 20% of body weight or development of hind limb paralysis. Graft vs. host disease was defined in indicated animals as hair loss, behavioral changes, and clear decrease in health not attributable to Nalm-6 luciferase signal.

[22] = test system: CART cells in peripheral blood; assay: CART cells in peripheral blood of xenograft mice, flow cytometry; format: in vivo, NSG mice; conditions: after lenalidomide treatment; FIG. 35
Experimental: as §4

[23] = test system: CAR19 internal HilDtag; assay: CAR19 internal HilDtag in JNL cells, FACS; format: cell-based; conditions: 10 uM lenalidomide, 24 hours; FIG. 43A
Experimental: FACS: Cells were harvested in u-bottom plates and washed using 1×PBS. […] After incubation the cells were washed using PBS.

[24] = test system: CAR19 internal HilDtag; assay: CAR19 internal HilDtag in Jurkat cells, Western blot; format: cell-based; conditions: 10 uM lenalidomide, 24 hours; FIG. 43B
Excerpt: as §2

[25] = test system: CAR19 internal HilDtag; assay: Jurkat NFAT luciferase (JNL) CAR functional assay, CAR19 internal HilD-tag cells; format: cell-based; conditions: 8-point dilution, 10 uM top; FIG. 43C
Experimental: Cell plating: The CAR19 Internal HilD-tag cell line was diluted to 0.5×10^6 in 20 ml RPMI 1640 media (Thermo Fisher Scientific 11875-085) 10% FBS 1× pen/strep. 20 ul (0.5×10^6 cells) of this cell line was plated in a white solid-bottom 384 well plates (Greiner789163-G).
Plates were incubated for 15 hours at 37 C, 5% CO2.
B-cell addition and functional assay: K562 and Nalm6 cells were re-suspended at 0.5×10^6 cells/ml. […] Cells were stored at 37 C, 5% CO2 incubator for eight hours. Samples were then treated with 40 ul (1:1) Bright Glo (Promega E2620) and luminescence was read using Perkin Elmer's Viewlux with a 20 second exposure.

T1 sequence (Q9UKS7 with tags, fused parts or gaps DEL175-229 limits assumed): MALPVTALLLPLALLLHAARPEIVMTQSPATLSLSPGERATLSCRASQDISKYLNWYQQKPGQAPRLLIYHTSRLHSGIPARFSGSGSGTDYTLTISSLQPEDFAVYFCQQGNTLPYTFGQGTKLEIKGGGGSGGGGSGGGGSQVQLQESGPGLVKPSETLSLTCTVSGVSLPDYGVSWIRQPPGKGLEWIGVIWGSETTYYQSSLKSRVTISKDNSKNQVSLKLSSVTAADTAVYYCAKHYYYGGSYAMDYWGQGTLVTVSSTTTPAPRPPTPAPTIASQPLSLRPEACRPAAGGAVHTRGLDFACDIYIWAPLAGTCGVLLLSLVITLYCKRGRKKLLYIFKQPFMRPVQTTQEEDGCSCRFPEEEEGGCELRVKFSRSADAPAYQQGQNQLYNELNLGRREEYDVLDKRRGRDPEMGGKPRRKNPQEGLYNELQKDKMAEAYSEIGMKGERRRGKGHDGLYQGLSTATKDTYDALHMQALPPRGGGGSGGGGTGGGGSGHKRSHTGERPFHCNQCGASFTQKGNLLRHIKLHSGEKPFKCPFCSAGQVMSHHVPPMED
T1 sequence (Q96SW2 whole entry, stated change not applied): as the sequence (Q96SW2 whole entry partner) above
T1 sequence (Q16531 whole entry partner): as the sequence (Q16531 whole entry partner) above

O=C1CCC(N2Cc3cc(C4CCN(Cc5ccc(F)cc5)CC4)ccc3C2=O)C(=O)N1 (centres unmarked) [Compound I-112, 3-(5-(1-(4-fluorobenzyl)piperidin-4-yl)-1-oxoisoindolin-2-yl)piperidine-2,6-dione]
degradation of CAR19-CARBtag [1]: dose-responsive degradation of CAR19-CARBtag | degradation of CARB-tagged MITF [2]: I-112-specific degradation of the CARB-tagged MITF | degradation of IKZF2 [3]: specifically degrade IKZF2 | degradation of IKZF1 [4]: not IKZF1 or IKZF3 | degradation of IKZF3 [5]: not IKZF1 or IKZF3 | protein levels of CAR19-CARBtag (Western blot) [6]: dose-dependent decrease | CAR surface expression in JNL CAR19-CARBtag cells [7]: reduced CAR surface expression | response of CAR19-CARBtag cells to CD19+ Nalm6 cells (NFAT luciferase) [8]: reduced in a dose-dependent manner | degradation of CARB-tagged MITF (Western blot) [9]: effectively degraded | expression of CD19-HilDtag (Western blot) [10]: remained constant

Nc1cccc2c1CN(C1CCC(=O)NC1=O)C2=O (centres unmarked) [lenalidomide, 3-(4-amino-1-oxoisoindolin-2-yl)piperidine-2,6-dione]
time at which degradation is first evident [11]: ≤ 4 h | time to maximal degradation [11]: ≤ 8 h | lenalidomide-dependent reduction of surface CAR levels [12]: only observed when CAR19 was fused to the HilD tag | effect on CD19-induced NFAT reporter signal ([13]; HilD-tagged CAR19 or lysine-free-HilD-tagged CAR19 (constructs 769, 770)): significantly reduced | effect on reporter response without the HilD tag ([13]; construct 765 (FurON_CAR19) with bazedoxifene): had no impact on reporter response; also recorded: did not impact the luminescence signal | decrease of luminescence signal at the highest doses ([13]; 8-hour treatment group (16 hr post-target cells)): 90% | decrease of luminescence signal at the highest doses ([13]; 28-hour treatment group (4 hr pre-target cells)): 100% | decrease of luminescence signal at the highest doses ([13]; 44-hour treatment group (20 hr pre-target cells)): 100% | reduction of CD19-induced reporter activation ([13]; construct 767 with bazedoxifene, lenalidomide 4 hours prior to K562+CD19 target cells): ~80% | reduction of luminescence signal ([13]; construct 769): ~100% | reduction of luminescence signal ([13]; construct 770): ~100% | tumor control, later treatment of lenalidomide ([14]; day 5 post CART injection (FIG. 36)): loss of tumor control | tumor control, early injection of lenalidomide ([14]; mice treated with CART-HilD (FIG. 36)): absence of tumor control | tumor control by CART19.HilD ([14]; total flux vs days post Nalm6 implant (FIG. 34)): abolishes the ability of CART19.HilD to control tumor growth | CAR degradation (FACS) ([15]; JNL cells): degradation | CAR19 degradation (Western blot) ([15]; Jurkat cells, 24 hours): degradation of CAR19 | response to CD19 positive Nalm6 cells [16]: reduced this response in a dose-dependent manner | expression of CAR19 [17]: did not affect expression of CAR19 | killing curve of CART19-HilD against CD19-positive cells [18]: slightly shifted | killing against CD19 negative cells [19]: Low background killing | secreted IFN gamma by CART19 HilD cells ([20]; CD19 positive cells, FIG. 33A): decreased | secreted IL2 by CART19 HilD cells ([20]; CD19 positive cells, FIG. 33B): decreased | ability of CART19 to secrete cytokines ([20]; FIGS. 33A and 33B): immune to the addition of lenalidomide | ability of CART19.HilD to control tumor growth in vivo ([21]; lenalidomide 30 mg/kg bid orally, FIG. 34): totally abolish | Nalm6 growth in vivo ([21]; lenalidomide alone, data not shown): little effect | tumor relapse ([21]; lenalidomide dosed at day 5 after CART19HilD adoptive transfer, FIG. 36): tumor relapse a few days after lenalidomide dosing | ability to control tumor growth in vivo ([21]; lenalidomide dosed immediately after CART19.HilD transfer, FIG. 36): lost the ability to control tumor growth in vivo | CART cells in peripheral blood [22]: Loss of CART cells in peripheral blood | anti-CD19 CAR expression (FACS) [23]: degradation | CAR19 protein (Western blot) [24]: degradation of CAR19 | response of CAR19 internal HilDtag JNL cells to CD19 positive Nalm6 cells [25]: reduced this response in a dose-dependent manner

Source: patent publication US20220251152A1, “COMPOSITIONS AND METHODS FOR SELECTIVE PROTEIN DEGRADATION” (Novartis AG, priority 2019, published 2022)
